Assays:
Candida albicans = experiment: Hard surface carrier disinfection test (AOAC 991.47), colony count; format: cell-based; details: for Colonies Of Candida Albicans Observed: carrier 15 min in culture; for Effect on the fungus: 25% loading, summary of Examples 1-15
Method: The compositions are evaluated according to an approved surface carrier disinfection test (Official Methods of Analysis of the Association of Official Analytical Chemists protocol 991.47: Hard surface carrier test method). Cultures of Candida albicans are grown for 24 hours at room temperature in trypsin soy broth to a density of approximately McFarland standard #10. Sterile glass cylinders (Belco Cat. #2090-[…]) serve as carriers. The carriers are coated with the test composition or the control composition and subsequently submerged in 5 ml of the stock culture and allowed to remain there for 15 minutes. The carriers are aseptically transferred to sterile, dry Whatman #1 filter paper, and excess droplets of the inoculation medium are removed. The carriers are dried at 37° C. for 40 minutes and then aseptically transferred to 5 ml of trypsin soy broth. They are then sonicated for 10 minutes in as water bath at 25° C. Tubes containing the sonicated carriers are vortexed, and a portion of the medium is placed onto trypsin soy agar plates, and incubated overnight at 37° C. Microbial growth is assessed by counting colonies.

[1] = tested for use as a possible sedative; cited from earlier work

CC1CC(C)(C)OB(OB2OC(C)CC(C)(C)O2)O1 (stereo not drawn) [compound S2, 2,2′-oxybis (4,4,6-trimethyl-1,3,2-dioxaborinane)]
Colonies Of Candida Albicans Observed (Candida albicans; 0.1 wt. % in mineral oil): 11
Colonies Of Candida Albicans Observed (Candida albicans; 1.0 wt. % in mineral oil): 1
Colonies Of Candida Albicans Observed (Candida albicans; 10 wt. % in mineral oil): 0
Effect on the fungus (Candida albicans): completely destroys the fungus
Colonies Of Candida Albicans Observed (Candida albicans; 25 wt. % in mineral oil): 0
Colonies Of Candida Albicans Observed (Candida albicans; 50 wt. % in mineral oil): 0
Colonies Of Candida Albicans Observed (Candida albicans; 75 wt. % in mineral oil): 0

CC1CCOB(OCCC(C)OB2OCCC(C)O2)O1 (stereo not drawn) [compound S1, 2,2′-(1-methyltrimethylenedioxy) bis-(4-methyl-1,3,2-dioxaborinane)]
Colonies Of Candida Albicans Observed (Candida albicans; 0.1 wt. % in mineral oil): 8
Colonies Of Candida Albicans Observed (Candida albicans; 1.0 wt. % in mineral oil): 2
Colonies Of Candida Albicans Observed (Candida albicans; 10 wt. % in mineral oil): 0
Effect on the fungus (Candida albicans): completely destroys the fungus
Colonies Of Candida Albicans Observed (Candida albicans; 25 wt. % in mineral oil): 0
Colonies Of Candida Albicans Observed (Candida albicans; 50 wt. % in mineral oil): 0
Colonies Of Candida Albicans Observed (Candida albicans; 75 wt. % in mineral oil): 0

CCCC1(C)COB(c2ccc(C)cc2)OC1 [I.S. 813, 2-(p-tolyl)-(5-methyl, 5-propyl)-1,3,2,-dioxiborinane]
Toxicity [1]: very low

From patent publication US7288533B2, “Topical application for treating toenail fungus” (priority 2004, dated 2007)
